# In patent publication US6737383B1, “Herbicidal oxadiazolidines” (priority 1999, dated 2004):
# Assays:
# [1] = system: wild oat; experiment: Test B pre/postemergence wild oat; type: in vivo, Avena fatua; conditions: for Plant response rating, Wild oats: Postemergence
# Summary of the method: (§1)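 Herbicidal effect was estimated by eye on a ten-point control scale after plants spent twelve to sixteen days in a greenhouse following soil or foliar treatment. Foliar sprays targeted plants at one to four leaves; all doses were formulated in a non-phytotoxic solvent with surfactant.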
# [2] = system: surinam grass; experiment: Test B pre/postemergence surinam grass; type: in vivo, Brachiaria decumbens
# Summary of the method: as §1
# [3] = system: velvetleaf; experiment: Test B pre/postemergence velvetleaf; type: in vivo, Abutilon theophrasti; conditions: for Plant response rating, Velvetleaf: Postemergence
# Summary of the method: as §1
# [4] = system: morningglory; experiment: Test B pre/postemergence morningglory; type: in vivo, Ipomoea hederacea
# Summary of the method: as §1
# [5] = system: corn; experiment: Test B pre/postemergence corn; type: in vivo, Zea mays
# Summary of the method: as §1
# [6] = system: rape; experiment: Test B pre/postemergence rape; type: in vivo, Brassica napus
# Summary of the method: as §1
# [7] = system: bedstraw; experiment: Test B pre/postemergence bedstraw; type: in vivo, Galium aparine; conditions: for Plant response rating, Bedstraw: Postemergence
# Summary of the method: as §1
# [8] = system: giant foxtail; experiment: Test B pre/postemergence giant foxtail; type: in vivo, Setaria faberii
# Summary of the method: as §1
# [9] = system: purple nutsedge; experiment: Test B pre/postemergence purple nutsedge; type: in vivo, Cyperus rotundus
# Summary of the method: as §1
# [10] = system: wheat; experiment: Test B pre/postemergence wheat; type: in vivo, Triticum aestivum; conditions: for Plant response rating, Wheat: Postemergence
# Summary of the method: as §1
# [11] = system: soybean; experiment: Test B pre/postemergence soybean; type: in vivo, Glycine max; conditions: for Plant response rating, Soybean: Postemergence
# Summary of the method: as §1
# [12] = system: crabgrass; experiment: Test B pre/postemergence crabgrass; type: in vivo, Digitaria sanguinalis
# Summary of the method: as §1
# [13] = system: pigweed; experiment: Test B pre/postemergence pigweed; type: in vivo, Amaranthus retroflexus; conditions: for Plant response rating, Redroot pigweed: Postemergence
# Summary of the method: as §1
# [14] = system: cocklebur; experiment: Test B pre/postemergence cocklebur; type: in vivo, Xanthium strumarium
# Summary of the method: as §1
# [15] = system: blackgrass; experiment: Test B pre/postemergence blackgrass; type: in vivo, Alopecurus myosuroides
# Summary of the method: as §1
# [16] = system: sugar beet; experiment: Test B pre/postemergence sugar beet; type: in vivo, Beta vulgaris; conditions: for Plant response rating, Sugarbeets: Postemergence
# Summary of the method: as §1
# [17] = Rate 500 g/ha, scale of 0 to 10 where 0 is no effect and 10 is complete control
# [18] = Preemergence, Rate 62 g/ha, scale 0 to 10 (0 no effect, 10 complete control)
# [19] = Preemergence, Rate 125 g/ha, scale 0 to 10, 0 is no effect, 10 is complete control
# [20] = Preemergence, Rate 500 g/ha, scale of 0 to 10 where 0 is no effect and 10 is complete control
# [21] = Rate 250 g/ha, scale of 0 to 10 where 0 is no effect and 10 is complete control
# [22] = Postemergence, Rate 62 g/ha, scale of 0 to 10, 0 is no effect, 10 is complete control
# [23] = Postemergence, Rate 125 g/ha, scale 0 to 10, 0 is no effect, 10 is complete control
# [24] = Postemergence, Rate 500 g/ha, scale of 0 to 10 where 0 is no effect and 10 is complete control
# [25] = Rate 250 g/ha, Postemergence, scale of 0 to 10 where 0 is no effect and 10 is complete control
structure (smiles),measurement,setting,value
CC(=O)C(C)n1c(=O)on(C(=O)N(c2ccccc2)C(C)C)c1=O (centres unmarked) [Compound 576],"Plant response rating, Wild oats",[1]; [17],0
same,Wild oats plant response rating,[1]; [18],0
same,Wild oats plant response rating,[1]; [19],0
same,Wild oats plant response rating (0 to 10 scale),"[1]; Preemergence, Rate 250 g/ha",3
same,Wild oats plant response rating,[1]; [20],8
same,"Plant response rating, Wild oats",[1]; [21],0
same,B. signalgrass plant response rating,[2]; [22],0
same,B. signalgrass plant response rating,[2]; [23],0
same,"Plant response rating, B. signalgrass",[2]; [24],2
same,B. signalgrass plant response rating,[2]; [18],0
same,B. signalgrass plant response rating,[2]; [19],3
same,"B. signalgrass plant response rating (0 to 10 scale, 0 is no effect, 10 is complete control)","[2]; Preemergence, Rate 250 g/ha",6
same,B. signalgrass plant response rating,[2]; [20],9
same,"Plant response rating, B. signalgrass",[2]; [25],0
same,"Plant response rating, Velvetleaf",[3]; [17],0
same,Velvetleaf plant response rating,[3]; [18],0
same,Velvetleaf plant response rating,[3]; [19],0
same,Velvetleaf plant response rating (0 to 10 scale),"[3]; Preemergence, Rate 250 g/ha",0
same,Velvetleaf plant response rating,[3]; [20],3
same,"Plant response rating, Velvetleaf",[3]; [21],0
same,Morningglory plant response rating,[4]; [22],2
same,Morningglory plant response rating,[4]; [23],2
same,"Plant response rating, Morningglory",[4]; [24],4
same,Morningglory plant response rating,[4]; [18],0
same,Morningglory plant response rating,[4]; [19],0
same,Morningglory plant response rating (0 to 10 scale),"[4]; Preemergence, Rate 250 g/ha",0
same,Morningglory plant response rating,[4]; [20],0
same,"Plant response rating, Morningglory",[4]; [25],4
same,Corn plant response rating,[5]; [22],0
same,Corn plant response rating,[5]; [23],0
same,"Plant response rating, Corn",[5]; [24],4
same,Corn plant response rating,[5]; [18],0
same,Corn plant response rating,[5]; [19],0
same,Corn plant response rating (0 to 10 scale),"[5]; Preemergence, Rate 250 g/ha",0
same,Corn plant response rating,[5]; [20],2
same,"Plant response rating, Corn",[5]; [25],2
same,Rape plant response rating,[6]; [22],0
same,Rape plant response rating,[6]; [23],0
same,"Plant response rating, Rape",[6]; [24],0
same,Rape plant response rating,[6]; [18],0
same,Rape plant response rating,[6]; [19],0
same,Rape plant response rating (0 to 10 scale),"[6]; Preemergence, Rate 250 g/ha",2
same,Rape plant response rating,[6]; [20],7
same,"Plant response rating, Rape",[6]; [25],0
same,"Plant response rating, Bedstraw",[7]; [17],9
same,Bedstraw plant response rating,[7]; [18],0
same,Bedstraw plant response rating,[7]; [19],0
same,Bedstraw plant response rating (0 to 10 scale),"[7]; Preemergence, Rate 250 g/ha",0
same,Bedstraw plant response rating,[7]; [20],0
same,"Plant response rating, Bedstraw",[7]; [21],5
same,Giant foxtail plant response rating,[8]; [22],2
same,Giant foxtail plant response rating,[8]; [23],3
same,"Plant response rating, Giant foxtail",[8]; [24],8
same,Giant foxtail plant response rating,[8]; [18],2
same,Giant foxtail plant response rating,[8]; [19],4
same,Giant foxtail plant response rating (0 to 10 scale),"[8]; Preemergence, Rate 250 g/ha",9
same,Giant foxtail plant response rating,[8]; [20],9
same,"Plant response rating, Giant foxtail",[8]; [25],7
same,Nutsedge plant response rating,[9]; [22],0
same,Nutsedge plant response rating,[9]; [23],0
same,Nutsedge plant response rating,[9]; [18],0
same,Nutsedge plant response rating,[9]; [19],0
same,Nutsedge plant response rating (0 to 10 scale),"[9]; Preemergence, Rate 250 g/ha",0
same,Nutsedge plant response rating,[9]; [20],8
same,"Plant response rating, Nutsedge",[9]; [25],0
same,"Plant response rating, Wheat",[10]; [17],0
same,Wheat plant response rating,[10]; [18],0
same,Wheat plant response rating,[10]; [19],6
same,Wheat plant response rating (0 to 10 scale),"[10]; Preemergence, Rate 250 g/ha",8
same,Wheat plant response rating,[10]; [20],8
same,"Plant response rating, Wheat",[10]; [21],0
same,"Plant response rating, Soybean",[11]; [17],4
same,Soybean plant response rating,[11]; [18],0
same,Soybean plant response rating,[11]; [19],0
same,Soybean plant response rating (0 to 10 scale),"[11]; Preemergence, Rate 250 g/ha",0
same,Soybean plant response rating,[11]; [20],0
same,"Plant response rating, Soybean",[11]; [21],3
same,Crabgrass plant response rating,[12]; [22],2
same,Crabgrass plant response rating,[12]; [23],3
same,"Plant response rating, Crabgrass",[12]; [24],9
same,Crabgrass plant response rating,[12]; [18],0
same,Crabgrass plant response rating,[12]; [19],4
same,Crabgrass plant response rating (0 to 10 scale),"[12]; Preemergence, Rate 250 g/ha",9
same,Crabgrass plant response rating,[12]; [20],9
same,"Plant response rating, Crabgrass",[12]; [25],9
same,"Plant response rating, Redroot pigweed",[13]; [17],4
same,Redroot pigweed plant response rating,[13]; [18],0
same,Redroot pigweed plant response rating,[13]; [19],9
same,Redroot pigweed plant response rating (0 to 10 scale),"[13]; Preemergence, Rate 250 g/ha",10
same,Redroot pigweed plant response rating,[13]; [20],10
same,"Plant response rating, Redroot pigweed",[13]; [21],0
same,Cocklebur plant response rating,[14]; [22],0
same,Cocklebur plant response rating,[14]; [23],0
same,"Plant response rating, Cocklebur",[14]; [24],0
same,Cocklebur plant response rating,[14]; [18],0
same,Cocklebur plant response rating,[14]; [19],0
same,Cocklebur plant response rating (0 to 10 scale),"[14]; Preemergence, Rate 250 g/ha",0
same,Cocklebur plant response rating,[14]; [20],0
same,"Plant response rating, Cocklebur",[14]; [25],0
same,Blackgrass plant response rating,[15]; [22],0
same,Blackgrass plant response rating,[15]; [23],0
same,"Plant response rating, Blackgrass",[15]; [24],7
same,Blackgrass plant response rating,[15]; [18],0
same,Blackgrass plant response rating,[15]; [19],3
same,Blackgrass plant response rating (0 to 10 scale),"[15]; Preemergence, Rate 250 g/ha",6
same,Blackgrass plant response rating,[15]; [20],9
same,"Plant response rating, Blackgrass",[15]; [25],2
same,"Plant response rating, Sugarbeets",[16]; [17],0
same,Sugarbeets plant response rating,[16]; [18],0
same,Sugarbeets plant response rating,[16]; [19],0
same,Sugarbeets plant response rating (0 to 10 scale),"[16]; Preemergence, Rate 250 g/ha",4
same,Sugarbeets plant response rating,[16]; [20],6
same,"Plant response rating, Sugarbeets",[16]; [21],0
